Read-outs that look alike come from different tables or passages of the source.
Target: T1, hM5 (Homo sapiens, UniProt P08912)
T1 construct: expressed in transfected cells
T1 sequence (P08912 1-532): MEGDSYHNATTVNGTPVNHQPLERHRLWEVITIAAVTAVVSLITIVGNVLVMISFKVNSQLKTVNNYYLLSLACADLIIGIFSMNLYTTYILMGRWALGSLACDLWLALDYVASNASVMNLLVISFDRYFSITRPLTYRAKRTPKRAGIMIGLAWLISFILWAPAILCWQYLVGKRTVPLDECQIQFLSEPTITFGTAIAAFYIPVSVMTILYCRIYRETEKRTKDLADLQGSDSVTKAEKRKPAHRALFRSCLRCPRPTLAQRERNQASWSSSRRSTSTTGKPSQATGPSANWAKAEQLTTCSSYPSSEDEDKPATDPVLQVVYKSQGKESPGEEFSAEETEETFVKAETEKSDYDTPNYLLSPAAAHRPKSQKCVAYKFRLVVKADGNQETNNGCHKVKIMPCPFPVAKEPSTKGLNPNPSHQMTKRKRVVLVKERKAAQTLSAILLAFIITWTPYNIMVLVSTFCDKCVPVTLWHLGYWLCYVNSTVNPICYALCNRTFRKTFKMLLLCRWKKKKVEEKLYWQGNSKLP
Test: Calcium mobilization concentration-response (IC50 vs EC80 acetylcholine), CHO hM5
Format: cell-based
In short: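 CHO cells stably expressing hM5, dye-loaded, in HBSS/20 mM HEPES/2.5 mM probenecid, pH 7.4. Compounds were pre-incubated 140 s before an EC80 acetylcholine challenge, with calcium flux read kinetically.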

[1] = CELL LINE hM5, vs EC80 acetylcholine, read-out: IC50
[2] = CELL LINE hM5, calcium mobilization, EC80 acetylcholine addition, read-out: IC50

Row | SMILES | IC50 [1] [nM] | IC50 [2] [nM] | further results
1 | O=S(=O)(c1ccc2ncsc2c1)N1CCC(c2nc3cccnc3s2)CC1 [Compound 11, 2-(1-(benzo[d]thiazol-6-ylsulfonyl)piperidin-4-yl)thiazolo[5,4-b]pyridine] |  | > 10000 | 
2 | Cc1cc2ncnn2cc1C1=CC2CCC(C1)N2S(=O)(=O)c1ccc2c(c1)CCO2 (stereo not shown) [Compound 190, 6-(8-((2,3-dihydrobenzofuran-5-yl)sulfonyl)-8-azabicyclo[3.2.1]oct-2-en-3-yl)-7-methyl-[1,2,4]triazolo[1,5-a]pyridine] |  |  | IC50: > 10000 nM
3 | Cc1nnc(S(=O)(=O)N2CCC(c3cn4ncnc4cc3C(F)F)CC2)s1 [Compound 556, 2-((4-(7-(difluoromethyl)-[1,2,4]triazolo[1,5-a]pyridin-6-yl)piperidin-1-yl)sulfonyl)-5-methyl-1,3,4-thiadiazole] | 342 |  | 
4 | [2H]C1([2H])CC(c2cn3ncnc3cc2F)CC([2H])([2H])N1S(=O)(=O)c1cnc2sccn12 [Compound 538, 5-((4-(7-fluoro-[1,2,4]triazolo[1,5-a]pyridin-6-yl)piperidin-1-yl-2,2,6,6-d4)sulfonyl)imidazo[2,1-b]thiazole] | 125 |  | 
5 | Cn1cc(S(=O)(=O)N2CCC(c3cn4ncnc4cc3F)CC2)nn1 [Compound 571, 7-fluoro-6-(1-((1-methyl-1H-1,2,3-triazol-4-yl)sulfonyl)piperidin-4-yl)-[1,2,4]triazolo[1,5-a]pyridine] | > 10000 |  | 
6 | Cc1cc(N(C)C)ncc1C1CCN(S(=O)(=O)c2cnc3sccn23)CC1 [Compound 566, 5-(1-(imidazo[2,1-b]thiazol-5-ylsulfonyl)piperidin-4-yl)-N,N,4-trimethylpyridin-2-amine] | 16 |  | 
7 | O=S(=O)(c1cnn2cccnc12)N1CCC(c2cn3ncnc3cc2F)CC1 [Compound 443, 7-fluoro-6-(1-(pyrazolo[1,5-a]pyrimidin-3-ylsulfonyl)piperidin-4-yl)-[1,2,4]triazolo[1,5-a]pyridine] | > 10000 |  | 
8 | O=S(=O)(c1ccc2c(c1)CCO2)N1CCC(c2cc3[nH]ccc3cn2)CC1 [Compound 29, 6-(1-((2,3-dihydrobenzofuran-5-yl)sulfonyl)piperidin-4-yl)-1H-pyrrolo[3,2-c]pyridine] |  | 2000 | 
9 | Cc1cc2ncnn2cc1C1CC2CCC(C1)N2S(=O)(=O)c1cnn2c1CCC2 (stereo not shown) [Compound 193, 6-(8-((5,6-dihydro-4H-pyrrolo[1,2-b]pyrazol-3-yl)sulfonyl)-8-azabicyclo[3.2.1]octan-3-yl)-7-methyl-[1,2,4]triazolo[1,5-a]pyridine] |  |  | IC50: 1600 nM
10 | Cc1c(S(=O)(=O)N2CCC(c3ccc4ncnn4c3C)CC2)cnn1C [Compound 198, 6-(1-((1,5-dimethyl-1H-pyrazol-4-yl)sulfonyl)piperidin-4-yl)-5-methyl-[1,2,4]triazolo[1,5-a]pyridine] |  | > 10000 | 
11 | Cc1cc2ncccc2cc1C1CCN(S(=O)(=O)c2c(Cl)nn3ccccc23)CC1 [Compound 447, 6-(1-((2-chloropyrazolo[1,5-a]pyridin-3-yl)sulfonyl)piperidin-4-yl)-7-methylquinoline] | 1360 |  | 
12 | [2H]C([2H])([2H])n1nc(Cl)c(S(=O)(=O)N2CCC(c3cn4ncnc4c(F)c3C)CC2)c1C [Compound 319, 6-(1-((3-chloro-5-methyl-1-(methyl-d3)-1H-pyrazol-4-yl)sulfonyl)piperidin-4-yl)-8-fluoro-7-methyl-[1,2,4]triazolo[1,5-a]pyridine] |  | 12 | 

More lines, main results first:

Row | IC50 [1] [nM] | IC50 [2] [nM] | SMILES | further results
13 | 2090 |  | Cc1c(S(=O)(=O)N2CCC(F)(c3cn4ncnc4cc3F)CC2)cnn1C [Compound 501, 6-(1-((1,5-dimethyl-1H-pyrazol-4-yl)sulfonyl)-4-fluoropiperidin-4-yl)-7-fluoro-[1,2,4]triazolo[1,5-a]pyridine] | 
14 |  | 7200 | Cc1cc2ncnn2cc1C1CCN(S(=O)(=O)c2cn(C)c(C)n2)CC1 [Compound 320, 6-(1-((1,2-dimethyl-1H-imidazol-4-yl)sulfonyl)piperidin-4-yl)-7-methyl-[1,2,4]triazolo[1,5-a]pyridine] | 
15 |  | 83 | CCc1cc2ncnn2cc1C1CCN(S(=O)(=O)c2cnc3n2CCCC3)CC1 [Compound 335, 7-ethyl-6-(1-((5,6,7,8-tetrahydroimidazo[1,2-a]pyridin-3-yl)sulfonyl)piperidin-4-yl)-[1,2,4]triazolo[1,5-a]pyridine] | 
16 |  | > 10000 | Cc1cc(C#N)cnc1C1=CCN(S(=O)(=O)c2cnn(C)c2C)CC1 [Compound 209, 1′-((1,5-dimethyl-1H-pyrazol-4-yl)sulfonyl)-3-methyl-1′,2′,3′,6′-tetrahydro-[2,4′-bipyridine]-5-carbonitrile] | 
17 |  | 786 | Cc1c(S(=O)(=O)N2CC=C(c3cn4ncnc4cc3C3CC3)CC2)cnn1C [Compound 148, 7-cyclopropyl-6-(1-((1,5-dimethyl-1H-pyrazol-4-yl)sulfonyl)-1,2,3,6-tetrahydropyridin-4-yl)-[1,2,4]triazolo[1,5-a]pyridine] | 
18 |  | 17 | Cc1c(C2CCN(S(=O)(=O)c3cnn(C)c3C(F)F)CC2)cn2ncnc2c1F [Compound 307, 6-(1-((5-(Difluoromethyl)-1-methyl-1H-pyrazol-4-yl)sulfonyl)piperidin-4-yl)-8-fluoro-7-methyl-[1,2,4]triazolo[1,5-a]pyridine] | 
19 |  | > 10000 | Cc1cc(C#N)cnc1C1=CCN(S(=O)(=O)c2ccc3c(c2)CCO3)CC1 [Compound 210, 1′-((2,3-dihydrobenzofuran-5-yl)sulfonyl)-3-methyl-1′,2′,3′,6′-tetrahydro-[2,4′-bipyridine]-5-carbonitrile] | 
20 |  | > 10000 | Cc1cc2ncnn2nc1C1CCN(S(=O)(=O)c2cnn(C(F)F)c2C)CC1 [Compound 176, 6-(1-((1-(difluoromethyl)-5-methyl-1H-pyrazol-4-yl)sulfonyl)piperidin-4-yl)-7-methyl-[1,2,4]triazolo[1,5-b]pyridazine] | 
21 |  | 212 | O=S(=O)(c1cnn2c1CCCC2)N1CC=C(c2cc3ncnn3cc2Cl)CC1 [Compound 241, 6-chloro-7-(1-((4,5,6,7-tetrahydropyrazolo[1,5-a]pyridin-3-yl)sulfonyl)-1,2,3,6-tetrahydropyridin-4-yl)-[1,2,4]triazolo[1,5-a]pyridine] | 
22 |  | 1200 | Cc1cc2nc(C(F)F)nn2cc1C1=CCN(S(=O)(=O)c2cnn3c2CCCC3)CC1 [Compound 316, 2-(difluoromethyl)-7-methyl-6-(1-((4,5,6,7-tetrahydropyrazolo[1,5-a]pyridin-3-yl)sulfonyl)-1,2,3,6-tetrahydropyridin-4-yl)-[1,2,4]triazolo[1,5-a]pyridine] | 
23 | 141 |  | Cc1ncc(S(=O)(=O)N2CCC(c3cn4ncnc4cc3C(F)F)CC2)o1 [Compound 497, 5-((4-(7-(difluoromethyl)-[1,2,4]triazolo[1,5-a]pyridin-6-yl)piperidin-1-yl)sulfonyl)-2-methyloxazole] | 
24 |  | > 10000 | Cc1cc2ncnn2nc1C1=CCN(S(=O)(=O)c2ccc3c(c2)CCO3)CC1 [Compound 167, 6-(1-((2,3-dihydrobenzofuran-5-yl)sulfonyl)-1,2,3,6-tetrahydropyridin-4-yl)-7-methyl-[1,2,4]triazolo[1,5-b]pyridazine] | 
25 |  | 1600 | Cc1cc2ncnn2nc1C1CCN(S(=O)(=O)c2ccc3c(c2)N(C)CCO3)CC1 [Compound 166, 4-methyl-6-((4-(7-methyl-[1,2,4]triazolo[1,5-b]pyridazin-6-yl)piperidin-1-yl)sulfonyl)-3,4-dihydro-2H-benzo[b][1,4]oxazine] | 

Reference: patent publication US20230183237A1, “COMPETITIVE AND NONCOMPETITIVE INHIBITORS OF THE MUSCARINIC ACETYLCHOLINE RECEPTOR M5” (Vanderbilt University, priority 2020, published 2023)
